Among the test systems are RXF 393 renal; HCT-116 colon; A498 renal; CAKI-1 renal; KM12 colon; SK-MEL-28 melanoma; NCI-H460 lung; CCRF-CEM leukemia; MDA-N; OVCAR-8 ovarian; LOX IMVI melanoma; U251 CNS; SNB-75 CNS; SF-539 CNS; DU-145 prostate; HOP-92 NSCLC; HL-60(TB) leukemia; OVCAR-5 ovarian.
What all share (experiment): inhibition of tumour cell growth, NCI panel, 48 h

The structures appear in SMILES notation.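 Assay format: 96-well plates, 48-hour exposure. Here, GI50 denotes the concentration required for 50% inhibition of growth. TGI denotes the concentration required for complete inhibition of growth.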

On to `C=CCN1C(=O)/C(=C/c2ccc(OC)cc2)N=C1SC/C=C/C`, for which the TGI is 87 µM in the assay on RXF 393 renal; greater than 100 µM with HCT-116 colon; greater than 100 µM with A498 renal; greater than 100 µM in the assay on CAKI-1 renal; greater than 100 µM with KM12 colon; greater than 100 µM with SK-MEL-28 melanoma. For the same compound, the TGI in the assay on NCI-H460 lung was greater than 100 µM; with CCRF-CEM leukemia, greater than 100 µM; in the assay with MDA-N, greater than 100 µM; in the assay with OVCAR-8 ovarian, 80.1 µM; in the assay on LOX IMVI melanoma it was greater than 100 µM; with U251 CNS it was greater than 100 µM. For the same compound, the TGI was greater than 100 µM with SNB-75 CNS; greater than 100 µM with SF-539 CNS; greater than 100 µM with DU-145 prostate; 93.8 µM with HOP-92 NSCLC; 54.4 µM in the assay on HL-60(TB) leukemia; greater than 100 µM in the assay on OVCAR-5 ovarian.

Regarding `COc1ccc(Nc2nnc(-c3nsc4ccccc34)s2)cc1`, the TGI in the assay with RXF 393 renal was greater than 78.9 µM; in the assay with HCT-116 colon, 45.2 µM; with A498 renal it was 15.8 µM; in the assay with CAKI-1 renal, greater than 100 µM; in the assay on KM12 colon, greater than 100 µM; in the assay with SK-MEL-28 melanoma, greater than 100 µM. Moreover, the TGI was greater than 65.9 µM with NCI-H460 lung; greater than 100 µM in the assay on CCRF-CEM leukemia; greater than 100 µM in the assay with MDA-N; greater than 100 µM in the assay on OVCAR-8 ovarian; greater than 100 µM in the assay with LOX IMVI melanoma; greater than 100 µM in the assay with U251 CNS. For the same compound, the TGI is 17.3 µM in the assay with SNB-75 CNS; greater than 100 µM in the assay with SF-539 CNS; greater than 100 µM in the assay with DU-145 prostate; 41.8 µM in the assay on HOP-92 NSCLC; greater than 100 µM in the assay on HL-60(TB) leukemia; greater than 100 µM in the assay with OVCAR-5 ovarian.

Take `Cn1c2ccccc2c2c(-c3ccccc3)cc3c(c21)C(=O)C=CC3=O`: the TGI with RXF 393 renal was 3.83 µM; in the assay with HCT-116 colon it was 2.91 µM; with A498 renal, 6.18 µM; in the assay with CAKI-1 renal, 4.07 µM; in the assay on KM12 colon it was greater than 8.77 µM; in the assay on SK-MEL-28 melanoma, 4.34 µM. The TGI in the assay with NCI-H460 lung was greater than 10 µM; in the assay on CCRF-CEM leukemia it was 0.538 µM; in the assay on MDA-N, greater than 7.18 µM; with OVCAR-8 ovarian, 5.12 µM; with LOX IMVI melanoma, greater than 10 µM; in the assay with U251 CNS it was greater than 9.67 µM. The TGI is greater than 9.66 µM with SNB-75 CNS; 4.29 µM in the assay on SF-539 CNS; greater than 10 µM in the assay on DU-145 prostate; 3.78 µM in the assay with HOP-92 NSCLC; 1.1 µM in the assay on HL-60(TB) leukemia; greater than 10 µM with OVCAR-5 ovarian.

Take `CCOC(=O)c1cnc2oc3ccc(O)cc3c2c1C`: the TGI in the assay with RXF 393 renal, in the assay on HCT-116 colon, in the assay with A498 renal, in the assay on CAKI-1 renal, in the assay with KM12 colon and with SK-MEL-28 melanoma was greater than 100 µM each time. Moreover, the TGI with NCI-H460 lung, with CCRF-CEM leukemia, in the assay on MDA-N, with OVCAR-8 ovarian, with LOX IMVI melanoma and in the assay on U251 CNS was greater than 100 µM in each case. The TGI is 82.9 µM with SNB-75 CNS; greater than 100 µM with SF-539 CNS; greater than 100 µM with DU-145 prostate; greater than 100 µM in the assay with HOP-92 NSCLC; greater than 100 µM in the assay with HL-60(TB) leukemia; greater than 100 µM with OVCAR-5 ovarian. In addition, the GI50 was 70.3 µM in the assay with KM12 colon and 26 µM with SNB-75 CNS.

Regarding `Nc1ncnn2c(C3OC(CO)C(O)C3O)ccc12` (stereo not given), the TGI was 0.667 µM with RXF 393 renal; 0.151 µM with HCT-116 colon; 0.539 µM with A498 renal; 0.486 µM in the assay on CAKI-1 renal; 0.677 µM in the assay with KM12 colon; 0.592 µM in the assay with SK-MEL-28 melanoma. The TGI in the assay on NCI-H460 lung worked out at 0.918 µM; with CCRF-CEM leukemia, 0.627 µM; in the assay on MDA-N, 0.693 µM; with OVCAR-8 ovarian, 0.746 µM; with LOX IMVI melanoma it was 0.0463 µM; with U251 CNS, 4.14 µM. The TGI with SNB-75 CNS was determined as 0.866 µM; in the assay with SF-539 CNS it was 0.403 µM; with DU-145 prostate, 0.74 µM; with HOP-92 NSCLC, 0.431 µM; with HL-60(TB) leukemia, 0.328 µM; in the assay on OVCAR-5 ovarian, 4.54 µM.

As for `COC(=O)[C@@H]1CN(C(C)=O)C(=O)N1`, the TGI in the assay with RXF 393 renal, in the assay with HCT-116 colon, in the assay with A498 renal, in the assay on CAKI-1 renal, in the assay on KM12 colon and in the assay on SK-MEL-28 melanoma was greater than 100 µM in each case. Further, the TGI in the assay on NCI-H460 lung, in the assay with CCRF-CEM leukemia, in the assay with MDA-N, in the assay on OVCAR-8 ovarian, in the assay on LOX IMVI melanoma and with U251 CNS was greater than 100 µM each time. The TGI in the assay with SNB-75 CNS, with SF-539 CNS, with DU-145 prostate, in the assay with HOP-92 NSCLC, in the assay with HL-60(TB) leukemia and with OVCAR-5 ovarian was greater than 100 µM throughout.

`Cc1ccc2c(c1)[nH]c(=S)n2/C=C1\C(=O)Oc2ccccc2C1=O`: the TGI in the assay on RXF 393 renal, in the assay on HCT-116 colon, in the assay on A498 renal, in the assay with CAKI-1 renal, in the assay with KM12 colon and with SK-MEL-28 melanoma was greater than 100 µM each time. For the same compound, the TGI in the assay on NCI-H460 lung, with CCRF-CEM leukemia, with MDA-N, with OVCAR-8 ovarian, in the assay with LOX IMVI melanoma and in the assay on U251 CNS was greater than 100 µM in each case. Besides, the TGI with SNB-75 CNS was greater than 100 µM; in the assay with SF-539 CNS, greater than 100 µM; with DU-145 prostate it was greater than 100 µM; with HOP-92 NSCLC, 71.5 µM; with HL-60(TB) leukemia, greater than 100 µM; in the assay on OVCAR-5 ovarian it was greater than 100 µM.

As for `C=CCN1C(=O)/C(=C/c2ccco2)N=C1SC/C=C/C`, the TGI with RXF 393 renal was 96.1 µM; with HCT-116 colon it was greater than 100 µM; in the assay on A498 renal, greater than 100 µM; in the assay on CAKI-1 renal it was greater than 100 µM; in the assay on KM12 colon, greater than 100 µM; in the assay on SK-MEL-28 melanoma, greater than 100 µM. The TGI in the assay on NCI-H460 lung is greater than 100 µM; in the assay on CCRF-CEM leukemia it was greater than 100 µM; with MDA-N, 77.5 µM; in the assay on OVCAR-8 ovarian, greater than 100 µM; in the assay with LOX IMVI melanoma it was 80.6 µM; in the assay with U251 CNS, greater than 100 µM. The TGI in the assay with SNB-75 CNS is greater than 100 µM; with SF-539 CNS it was greater than 100 µM; with DU-145 prostate, greater than 100 µM; in the assay with HOP-92 NSCLC, greater than 100 µM; in the assay with HL-60(TB) leukemia, 76 µM; with OVCAR-5 ovarian, greater than 100 µM.

Take `O=C(CC(=O)N(C(=O)/C=C\c1ccccc1)c1ccc(Cl)cc1)N1N=C(c2ccccc2)C(N=Nc2cccc([N+](=O)[O-])c2)C1=O` (stereo not given): the TGI in the assay on RXF 393 renal was 36.9 µM; in the assay with HCT-116 colon, 13.5 µM; with A498 renal, 35.6 µM; in the assay on CAKI-1 renal it was greater than 100 µM; with KM12 colon, 38.7 µM; in the assay on SK-MEL-28 melanoma, 98.1 µM. Further, the TGI was 29.5 µM in the assay on NCI-H460 lung; 38.5 µM in the assay on CCRF-CEM leukemia; greater than 100 µM with MDA-N; greater than 100 µM with OVCAR-8 ovarian; greater than 100 µM in the assay on LOX IMVI melanoma; 33.7 µM in the assay with U251 CNS. The TGI in the assay on SNB-75 CNS is 29.3 µM; with SF-539 CNS it was 25.8 µM; with DU-145 prostate, 91.8 µM; with HOP-92 NSCLC, greater than 100 µM; in the assay on HL-60(TB) leukemia, 11.1 µM; in the assay on OVCAR-5 ovarian it was greater than 100 µM.

With `COc1cc(O)c2c(=O)cc(-c3ccc(O)cc3O)oc2c1CC=C(C)C`, the TGI with RXF 393 renal is 19.6 µM; in the assay on HCT-116 colon, 32.4 µM; in the assay on A498 renal, 66.4 µM; in the assay on CAKI-1 renal, 32.5 µM; in the assay with KM12 colon, 21.5 µM; in the assay with SK-MEL-28 melanoma, greater than 100 µM. The TGI with NCI-H460 lung was determined as 27.7 µM; with CCRF-CEM leukemia it was 63 µM; in the assay with MDA-N, 61.5 µM; in the assay with OVCAR-8 ovarian, 35.3 µM; with LOX IMVI melanoma, 28.3 µM; in the assay on U251 CNS, 38.2 µM. Moreover, the TGI in the assay on SNB-75 CNS was 46.1 µM; in the assay on SF-539 CNS it was 34.7 µM; in the assay on DU-145 prostate, greater than 100 µM; in the assay on HOP-92 NSCLC, 35.7 µM; in the assay with HL-60(TB) leukemia, 34.4 µM; in the assay on OVCAR-5 ovarian, greater than 100 µM.

For `OC1(c2cccs2)c2cccc(Cl)c2C(O)(c2cccs2)c2c(Cl)cccc21` (stereo not given), the TGI with RXF 393 renal, in the assay with HCT-116 colon, in the assay with A498 renal, with CAKI-1 renal, in the assay on KM12 colon and in the assay with SK-MEL-28 melanoma was greater than 100 µM throughout. The TGI in the assay on NCI-H460 lung, with CCRF-CEM leukemia, in the assay with MDA-N, in the assay with OVCAR-8 ovarian, with LOX IMVI melanoma and in the assay with U251 CNS was greater than 100 µM throughout. Moreover, the TGI in the assay on SNB-75 CNS, in the assay with SF-539 CNS, in the assay with DU-145 prostate, in the assay with HOP-92 NSCLC, with HL-60(TB) leukemia and with OVCAR-5 ovarian was greater than 100 µM in each case.

Values taken from PubChem BioAssay (NCI).
